Assay results from patent US5753617A, “Peptide inhibitors of cellular adhesion” (Centocor, Inc., priority 1995, dated 1998).
Read-outs that look alike come from different tables or passages of the source. Where a SMILES comes first, the peptide text is derived from it. Bridges are numbered along the chain shown (N, C = ends). [ ]: non-standard residue; d: D form.

Assays:
P-selectin = target: T1, P-selectin (Homo sapiens, UniProt P16109); experiment: Inhibition of human neutrophil adhesion to purified P-selectin immobilized on plastic wells; format: cell-based; details: inhibiting the binding of human neutrophils to P-selectin
T1 construct: P-selectin is isolated from human platelet lysates; from tissue; host or cells: human platelets (outdated platelet packs from a blood bank)
T1 sequence (P16109 42-830): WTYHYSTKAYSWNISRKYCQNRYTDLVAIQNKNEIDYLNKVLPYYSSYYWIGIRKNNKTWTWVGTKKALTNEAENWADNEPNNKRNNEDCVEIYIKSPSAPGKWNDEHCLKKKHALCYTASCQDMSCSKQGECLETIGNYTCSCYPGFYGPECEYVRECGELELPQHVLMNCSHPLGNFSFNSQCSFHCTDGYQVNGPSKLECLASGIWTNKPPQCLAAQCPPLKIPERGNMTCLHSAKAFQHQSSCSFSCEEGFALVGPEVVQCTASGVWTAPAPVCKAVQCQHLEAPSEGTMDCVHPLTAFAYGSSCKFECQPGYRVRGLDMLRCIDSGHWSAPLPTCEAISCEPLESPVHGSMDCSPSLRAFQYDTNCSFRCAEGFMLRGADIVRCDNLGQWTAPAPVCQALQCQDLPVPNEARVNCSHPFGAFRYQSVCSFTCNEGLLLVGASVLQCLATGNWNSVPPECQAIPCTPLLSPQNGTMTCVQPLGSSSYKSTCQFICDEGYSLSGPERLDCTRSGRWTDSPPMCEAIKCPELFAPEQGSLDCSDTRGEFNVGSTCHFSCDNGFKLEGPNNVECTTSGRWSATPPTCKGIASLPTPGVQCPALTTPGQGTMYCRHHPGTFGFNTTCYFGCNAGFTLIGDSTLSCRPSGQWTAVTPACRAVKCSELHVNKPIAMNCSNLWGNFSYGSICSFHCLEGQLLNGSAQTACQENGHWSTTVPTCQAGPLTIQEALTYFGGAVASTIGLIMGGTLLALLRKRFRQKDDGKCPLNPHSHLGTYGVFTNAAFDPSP
Method in brief: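 Isolated human neutrophils (2×10^5 per well) in HBSS with Ca2+/Mg2+ and HSA added to wells coated overnight at 4° C with platelet-derived P-selectin (5 micrograms/mL), HSA-blocked; 20 min at 22° C. Nonadherent cells removed by inverted centrifugation at 150 g; adherent cells quantified by myeloperoxidase activity.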

[1] = disulfide bond, water

Row | SMILES | IC50 (P-selectin) | other results
1 | CC(C)[C@@H](NC(=O)[C@@H](Cc1c[nH]c2ccccc12)NC(=O)[C@H](NC(=O)[C@@H](Cc1c[nH]c2ccccc12)NC(=O)[C@H]1CSSC[C@@H](NC(=O)[C@@H](CCCCN)NC(=O)[C@H](N)CCCNC(=N)N)C(=O)N[C@@H](CCCCN)C(=O)N[C@@H](Cc2ccccc2)C(=O)N1)[C@H](C)O)C(N)=O [(70)] (H-[dR][dK][dC]KF[dC][dW][dT][dW][dV]-NH2; disulfide 3-6) | 85.9 µM | ring closure, yield of all isomers ([1]; from CC(C)[C@@H](NC(=O)[C@@H](Cc1c[nH]c2ccccc12)NC(=O)[C@H](NC(=O)[C@@H](Cc1c[nH]c2ccccc12)NC(=O)[C@@H](CS)NC(=O)[C@H](Cc1ccccc1)NC(=O)[C@H](CCCCN)NC(=O)[C@@H](CS)NC(=O)[C@@H](CCCCN)NC(=O)[C@H](N)CCCNC(=N)N)[C@H](C)O)C(N)=O, DMSO, 0.708 mM, 48.0 h): 8.8%
2 | CC(C)[C@@H](NC(=O)[C@@H](Cc1c[nH]c2ccccc12)NC(=O)[C@H](NC(=O)[C@@H](Cc1c[nH]c2ccccc12)NC(=O)[C@H]1CSSC[C@@H](NC(=O)[C@@H](CCCCN)NC(=O)[C@H](N)CCCNC(=N)N)C(=O)NCC(=O)N[C@@H](CCCCN)C(=O)N1)[C@H](C)O)C(N)=O [(71)] (H-[dR][dK][dC]GK[dC][dW][dT][dW][dV]-NH2; disulfide 3-6) | 2000 µM | ring closure, yield of all isomers ([1]; from CC(C)[C@@H](NC(=O)[C@@H](Cc1c[nH]c2ccccc12)NC(=O)[C@H](NC(=O)[C@@H](Cc1c[nH]c2ccccc12)NC(=O)[C@@H](CS)NC(=O)[C@H](CCCCN)NC(=O)CNC(=O)[C@@H](CS)NC(=O)[C@@H](CCCCN)NC(=O)[C@H](N)CCCNC(=N)N)[C@H](C)O)C(N)=O, DMSO, 0.181 mM, 72.0 h): 10.4%
3 | CC(C)[C@@H](NC(=O)[C@@H](Cc1ccccc1)NC(=O)[C@H](NC(=O)[C@@H](Cc1c[nH]c2ccccc12)NC(=O)[C@H]1CSSC[C@@H](NC(=O)[C@@H](CCCCN)NC(=O)[C@H](N)CCCNC(=N)N)C(=O)NCC(=O)N[C@@H](Cc2ccccc2)C(=O)N1)[C@H](C)O)C(N)=O [(79)] (H-[dR][dK][dC]GF[dC][dW][dT][dF][dV]-NH2; disulfide 3-6) | 7.7 µM | ring closure, yield of all isomers ([1]; from CC(C)[C@@H](NC(=O)[C@@H](Cc1ccccc1)NC(=O)[C@H](NC(=O)[C@@H](Cc1c[nH]c2ccccc12)NC(=O)[C@@H](CS)NC(=O)[C@H](Cc1ccccc1)NC(=O)CNC(=O)[C@@H](CS)NC(=O)[C@@H](CCCCN)NC(=O)[C@H](N)CCCNC(=N)N)[C@H](C)O)C(N)=O, DMSO, 0.101 mM): 15.2%
4 | CC(C)[C@@H](NC(=O)[C@@H](Cc1c[nH]c2ccccc12)NC(=O)[C@H](NC(=O)[C@@H](Cc1c[nH]c2ccccc12)NC(=O)[C@H]1CSSC[C@@H](NC(=O)[C@@H](CCCCN)NC(=O)[C@H](N)CCCNC(=N)N)C(=O)N2CCC[C@H]2C(=O)N[C@@H](Cc2ccccc2)C(=O)N1)[C@H](C)O)C(N)=O [(84)] (H-[dR][dK][dC]PF[dC][dW][dT][dW][dV]-NH2; disulfide 3-6) | 26.4 µM | ring closure, yield of all isomers ([1]; from CC(C)[C@@H](NC(=O)[C@@H](Cc1c[nH]c2ccccc12)NC(=O)[C@H](NC(=O)[C@@H](Cc1c[nH]c2ccccc12)NC(=O)[C@@H](CS)NC(=O)[C@H](Cc1ccccc1)NC(=O)[C@@H]1CCCN1C(=O)[C@@H](CS)NC(=O)[C@@H](CCCCN)NC(=O)[C@H](N)CCCNC(=N)N)[C@H](C)O)C(N)=O, air (copper wire, ammonium acetate pH 8.5), 0.756 mM, 25.0 °C): 12%
5 | CC(C)[C@@H]1NC(=O)CNC(=O)[C@H](NC(=O)[C@@H](CCCCN)NC(=O)[C@H](N)CCCNC(=N)N)CSSC[C@H](C(=O)N[C@H](Cc2c[nH]c3ccccc23)C(=O)N[C@@H](C(=O)N[C@H](Cc2c[nH]c3ccccc23)C(=O)N[C@@H](C(N)=O)C(C)C)[C@H](C)O)NC1=O [(89)] (H-[dR][dK][dC]GV[dC][dW][dT][dW][dV]-NH2; disulfide 3-6) | 22.3 µM | ring closure, yield of all isomers ([1]; from CC(C)[C@H](NC(=O)CNC(=O)[C@@H](CS)NC(=O)[C@@H](CCCCN)NC(=O)[C@H](N)CCCNC(=N)N)C(=O)N[C@H](CS)C(=O)N[C@H](Cc1c[nH]c2ccccc12)C(=O)N[C@@H](C(=O)N[C@H](Cc1c[nH]c2ccccc12)C(=O)N[C@@H](C(N)=O)C(C)C)[C@H](C)O, DMSO, 0.387 mM, 25.0 °C, 72.0 h): 4%
6 | CC[C@@H](C)[C@H]1NC(=O)[C@H](NC(=O)[C@@H](CCCCN)NC(=O)[C@H](N)CCCNC(=N)N)CSSC[C@H](C(=O)N[C@H](Cc2c[nH]c3ccccc23)C(=O)N[C@@H](C(=O)N[C@H](Cc2c[nH]c3ccccc23)C(=O)N[C@@H](C(N)=O)C(C)C)[C@H](C)O)NC(=O)[C@H]([C@@H](C)CC)NC1=O [(92)] (H-[dR][dK][dC][dI]I[dC][dW][dT][dW][dV]-NH2; disulfide 3-6) | 2.4 µM | ring closure, yield of all isomers ([1]; from CC[C@@H](C)[C@@H](NC(=O)[C@@H](CS)NC(=O)[C@@H](CCCCN)NC(=O)[C@H](N)CCCNC(=N)N)C(=O)N[C@H](C(=O)N[C@H](CS)C(=O)N[C@H](Cc1c[nH]c2ccccc12)C(=O)N[C@@H](C(=O)N[C@H](Cc1c[nH]c2ccccc12)C(=O)N[C@@H](C(N)=O)C(C)C)[C@H](C)O)[C@@H](C)CC, DMSO, 0.0765 mM, 24.0 h): 17.5%

The remaining compounds from weak to strong by IC50 (P-selectin), led by results:

Row | IC50 (P-selectin) | SMILES | other results
7 | 105 µM | CC(C)[C@@H](NC(=O)[C@@H](Cc1c[nH]c2ccccc12)NC(=O)[C@H](NC(=O)[C@H]1CCCN1C(=O)[C@H]1CSSC[C@@H](NC(=O)[C@@H](CCCCN)NC(=O)[C@H](N)CCCNC(=N)N)C(=O)NCC(=O)N[C@@H](Cc2ccccc2)C(=O)N1)[C@H](C)O)C(N)=O [(76)] (H-[dR][dK][dC]GF[dC][dP][dT][dW][dV]-NH2; disulfide 3-6) | ring closure, yield of all isomers ([1]; from CC(C)[C@@H](NC(=O)[C@@H](Cc1c[nH]c2ccccc12)NC(=O)[C@H](NC(=O)[C@H]1CCCN1C(=O)[C@@H](CS)NC(=O)[C@H](Cc1ccccc1)NC(=O)CNC(=O)[C@@H](CS)NC(=O)[C@@H](CCCCN)NC(=O)[C@H](N)CCCNC(=N)N)[C@H](C)O)C(N)=O, DMSO, 0.14 mM, 192.0 h): 20.6%
8 | 67.5 µM | CC[C@@H](C)[C@H]1NC(=O)[C@H](NC(=O)[C@@H](CCCCN)NC(=O)[C@H](N)CCCNC(=N)N)CSSC[C@H](C(=O)N[C@H](Cc2c[nH]c3ccccc23)C(=O)N[C@@H](C(=O)N[C@H](Cc2c[nH]c3ccccc23)C(=O)N[C@@H](C(N)=O)C(C)C)[C@H](C)O)NC(=O)[C@H](Cc2ccccc2)NC1=O [(93)] (H-[dR][dK][dC][dI]F[dC][dW][dT][dW][dV]-NH2; disulfide 3-6) | ring closure, yield of all isomers ([1]; from CC[C@@H](C)[C@@H](NC(=O)[C@@H](CS)NC(=O)[C@@H](CCCCN)NC(=O)[C@H](N)CCCNC(=N)N)C(=O)N[C@@H](Cc1ccccc1)C(=O)N[C@H](CS)C(=O)N[C@H](Cc1c[nH]c2ccccc12)C(=O)N[C@@H](C(=O)N[C@H](Cc1c[nH]c2ccccc12)C(=O)N[C@@H](C(N)=O)C(C)C)[C@H](C)O, DMSO, 0.671 mM, 16.0 h): 22.3%
9 | 9.9 µM | CC(C)[C@@H](NC(=O)[C@@H](CCCNC(=N)N)NC(=O)[C@H](NC(=O)[C@@H](Cc1c[nH]c2ccccc12)NC(=O)[C@H]1CSSC[C@@H](NC(=O)[C@@H](CCCCN)NC(=O)[C@H](N)CCCNC(=N)N)C(=O)NCC(=O)N[C@@H](Cc2ccccc2)C(=O)N1)[C@H](C)O)C(N)=O [(90)] (H-[dR][dK][dC]GF[dC][dW][dT][dR][dV]-NH2; disulfide 3-6) | ring closure, yield of all isomers ([1]; from CC(C)[C@@H](NC(=O)[C@@H](CCCNC(=N)N)NC(=O)[C@H](NC(=O)[C@@H](Cc1c[nH]c2ccccc12)NC(=O)[C@@H](CS)NC(=O)[C@H](Cc1ccccc1)NC(=O)CNC(=O)[C@@H](CS)NC(=O)[C@@H](CCCCN)NC(=O)[C@H](N)CCCNC(=N)N)[C@H](C)O)C(N)=O, DMSO, 0.747 mM, 16.0 h): 18.5%
10 | 2.2 µM | CC(C)[C@@H](NC(=O)[C@@H](Cc1c[nH]c2ccccc12)NC(=O)[C@H](NC(=O)[C@@H](Cc1c[nH]c2ccccc12)NC(=O)[C@H]1CSSC[C@@H](NC(=O)[C@@H](CCCCN)NC(=O)[C@H](N)CCCNC(=N)N)C(=O)N[C@@H](Cc2c[nH]cn2)C(=O)N[C@@H](Cc2ccccc2)C(=O)N1)[C@H](C)O)C(N)=O [(94)] (H-[dR][dK][dC]HF[dC][dW][dT][dW][dV]-NH2; disulfide 3-6) | ring closure, yield of all isomers ([1]; from CC(C)[C@@H](NC(=O)[C@@H](Cc1c[nH]c2ccccc12)NC(=O)[C@H](NC(=O)[C@@H](Cc1c[nH]c2ccccc12)NC(=O)[C@@H](CS)NC(=O)[C@H](Cc1ccccc1)NC(=O)[C@H](Cc1c[nH]cn1)NC(=O)[C@@H](CS)NC(=O)[C@@H](CCCCN)NC(=O)[C@H](N)CCCNC(=N)N)[C@H](C)O)C(N)=O, DMSO, 0.714 mM): 10.7%
